In brackets after ≈: the same amount, converted by molar mass.
Key:
Escherichia coli = experiment: Antibacterial activity against Escherichia coli; format: functional
Staphylococcus aureus = experiment: Antibacterial activity against Staphylococcus aureus; format: functional
Micrococcus luteus = experiment: Antibacterial activity against Micrococcus luteus; format: functional
Candida albicans = experiment: Antifungal activity against Candida albicans; format: functional, organism-based
[1] = tested on: Trichophyton mentagrophytes; experiment: Antifungal activity against Trichophyton mentagrophytes; format: functional, organism-based
Bacillus subtilis = experiment: Antibacterial activity against Bacillus subtilis; format: functional
Cryptococcus neoformans = experiment: Antifungal activity against Cryptococcus neoformans; format: functional, organism-based
Aspergillus niger = experiment: Antifungal activity against Aspergillus niger; format: functional, organism-based

Row | MIC (Escherichia coli) [µg/mL] | MIC (Staphylococcus aureus) [µg/mL] | MIC (Micrococcus luteus) [µg/mL] | IC50 (Candida albicans) [µg/mL] | IC50 [1] [µg/mL] | MIC (Bacillus subtilis) [µg/mL] | IC50 (Cryptococcus neoformans) [µg/mL] | IC50 (Aspergillus niger) [µg/mL] | Structure (SMILES)
1 | > 32 | > 32 | > 32 | > 32 | > 32 | > 32 | 16 (≈ 33.3 µM) | 32 (≈ 66.5 µM) | NCCCOc1c(Br)cc(C/C(=N\O)C(=O)NCCC(=O)O)cc1Br
2 | > 32 | > 32 | > 32 | > 32 | > 32 | > 32 | > 32 | 32 | O=C(O)/C(Cc1cc(Br)c(OCCC[n+]2ccccc2)c(Br)c1)=N/O

Reference: ChEMBL document CHEMBL3632467, “Tyrokeradines G and H, new bromotyrosine alkaloids from an Okinawan Verongid sponge” (Bioorg Med Chem Lett, 2015)
